Measured values from US9492460B2, “Carbazole compounds useful as bromodomain inhibitors” (Bristol-Myers Squibb Company, priority 2013, dated 2016).

The compounds below were run against T1, bromodomain BRD4 (44-168), BRD4 (333-460), and BRD4 (1-477 or 44-460) (Homo sapiens, UniProt O60885) (assay: Time Resolved Fluorescence Resonance Energy Transfer (TR-FRET) binding assay). Details: one of the FRET assays described.
T1 construct: BRD4(44-168), BRD4(333-460), BRD4(44-460), BRD4(1-477), O60885-1; fused on or other part: N-terminal BirA biotinylation motif, biotinylated; The TVMV-cleavable His6 tag is removed, except in some BRD4(44-460) runs detected with anti-His terbium cryptate

SMILES	IC50 [nM]
Cc1noc(C)c1-c1ccc2c(c1)[nH]c1ccc(C(=O)N3CCOCC3)cc12 [Example 1, 2-(3,5-dimethyl-4-isoxazolyl)-6-(4-morpholinylcarbonyl)-9H-carbazole]	< 500
CNC(=O)c1cc(-c2c(C)noc2C)cc2c1c1cc(N3CCCOC3=O)ccc1n2Cc1ccc(Cl)cc1 [Example 170, 9-(4-chlorobenzyl)-2-(3,5-dimethyl-4-isoxazolyl)-N-methyl-6-(2-oxo-1,3-oxazinan-3-yl)-9H-carbazole-4-carboxamide]	< 50
Cc1noc(C)c1-c1cc(C(N)=O)c2c3cc(NC(=O)N(C)C)ccc3n(Cc3ccccc3)c2c1 [Example 147, 9-benzyl-6-((dimethylcarbamoyl)amino)-2-(3,5-dimethyl-4-isoxazolyl)-9H-carbazole-4-carboxamide]	< 50
COC(=O)c1ccc2c3c(C(N)=O)cc(-c4c(C)noc4C)cc3n(Cc3ccccc3)c2c1 [Example 183, Methyl 9-benzyl-5-carbamoyl-7-(3,5-dimethyl-4-isoxazolyl)-9H-carbazole-2-carboxylate]	< 50
Cc1noc(C)c1-c1cc(C(N)=O)c2c3cc(C(=O)N4CC(O)C4)ccc3n(Cc3ccccc3)c2c1 [Example 53]	< 50
CON(C)C(=O)c1ccc2c3c(C(N)=O)cc(-c4c(C)noc4C)cc3n(Cc3ccccc3)c2c1 [Example 189, 9-Benzyl-7-(3,5-dimethyl-4-isoxazolyl)-N˜2˜-methoxy-N˜2˜-methyl-9H-carbazole-2,5-dicarboxamide]	< 50
CC(=O)Nc1ccc2c(c1)c1c(C(N)=O)cc(-c3c(C)noc3C)cc1n2Cc1ccccc1 [Example 142, 6-acetamido-9-benzyl-2-(3,5-dimethyl-4-isoxazolyl)-9H-carbazole-4-carboxamide]	< 50
Cc1noc(C)c1-c1cc(C(=O)N(C)C)c2c3cc(C(=O)N4CC(F)(F)C4)ccc3n(C(C)c3ccccc3)c2c1 (stereo not shown) [Example 120, 6-((3,3-difluoro-1-azetidinyl)carbonyl)-2-(3,5-dimethyl-4-isoxazolyl)-N,N-dimethyl-9-(1-phenylethyl)-9H-carbazole-4-carboxamide]	< 500
CNC(=O)c1cc(-c2c(C)noc2C)cc2c1c1cc(C(=O)N3CC(F)C3)ccc1n2Cc1c(F)cccc1F [Example 105]	< 50
CNC(=O)c1cc(-c2c(C)noc2C)cc2c1c1cc(C(=O)N3CC(F)C3)ccc1n2Cc1cccc(F)c1F [Example 107]	< 50
Cc1noc(C)c1-c1cc(C(N)=O)c2c3cc(N4CCOC4=O)ccc3n(C(C)c3ccccc3)c2c1 (stereo not shown) [Example 163, 2-(3,5-dimethyl-4-isoxazolyl)-6-(2-oxo-1,3-oxazolidin-3-yl)-9-(1-phenylethyl)-9H-carbazole-4-carboxamide]	< 50
Cc1noc(C)c1-c1cc(C(N)=O)c2c3cc(C(=O)N4CC(F)C4)ccc3n(C(C)c3ccccc3)c2c1 (stereo not shown) [Example 85, 2-(3,5-dimethyl-4-isoxazolyl)-6-((3-fluoro-1-azetidinyl)carbonyl)-9-(1-phenylethyl)-9H-carbazole-4-carboxamide]	< 50
Cc1noc(C)c1-c1cc(C(N)=O)c2c3cc(C(=O)N4CC(F)(F)C4)ccc3n(C(C)c3ccccc3)c2c1 (single isomer, unassigned) [Example 97, 6-((3,3-difluoro-1-azetidinyl)carbonyl)-2-(3,5-dimethyl-4-isoxazolyl)-9-(1-phenylethyl)-9H-carbazole-4-carboxamide]	< 50
Cc1noc(C)c1-c1cc(C(N)=O)c2c3cc(C(=O)N4CC(C)OC(C)C4)ccc3n(C(C)c3ccccc3)c2c1 (stereo not shown) [Example 39]	< 50
Cc1noc(C)c1-c1cc(C(N)=O)c2c3cc(N4CCCS4(=O)=O)ccc3n(Cc3ccc(F)cc3)c2c1 [Example 174, 2-(3,5-dimethyl-4-isoxazolyl)-6-(1,1-dioxido-2-isothiazolidinyl)-9-(4-fluorobenzyl)-9H-carbazole-4-carboxamide]	< 50
Cc1noc(C)c1-c1cc(C#N)c2c3ccc(C(N)=O)cc3n(C(c3ccccc3)c3ccccc3)c2c1 [Example 194, 5-Cyano-7-(3,5-dimethyl-4-isoxazolyl)-9-(diphenylmethyl)-9H-carbazole-2-carboxamide]	< 50
Cc1noc(C)c1-c1cc(C#N)c2c3cc(C(=O)N4CC(F)C4)ccc3n(Cc3cccc(F)c3)c2c1 [Example 121, 2-(3,5-dimethyl-4-isoxazolyl)-6-((3-fluoro-1-azetidinyl)carbonyl)-9-(3-fluorobenzyl)-9H-carbazole-4-carbonitrile]	< 500
CCNC(=O)c1cc(-c2c(C)noc2C)cc2c1c1cc(N3CCCOC3=O)ccc1n2C(C)c1ccccc1 (stereo not shown) [Example 167, 2-(3,5-dimethyl-4-isoxazolyl)-N-ethyl-6-(2-oxo-1,3-oxazinan-3-yl)-(1-phenylethyl)-9H-carbazole-4-carboxamide]	< 50
CC(=O)N(C)c1ccc2c(c1)c1c(C(N)=O)cc(-c3c(C)noc3C)cc1n2Cc1ccccc1 [Example 131, 9-benzyl-2-(3,5-dimethylisoxazol-4-yl)-6-(N-methylacetamido)-9H-carbazole-4-carboxamide]	< 50

SMILES	IC50 [nM]
CNC(=O)Nc1ccc2c(c1)c1c(C(N)=O)cc(-c3c(C)noc3C)cc1n2Cc1ccccc1 [Example 148, 9-benzyl-2-(3,5-dimethyl-4-isoxazolyl)-6-((methylcarbamoyl)amino)-9H-carbazole-4-carboxamide]	< 50
CNC(=O)c1cc(-c2c(C)noc2C)cc2c1c1cc(C(=O)N3CC(F)C3)ccc1n2Cc1ccc(Cl)c(F)c1 [Example 109]	< 50
Cc1nnn(C)c1-c1cc(C(N)=O)c2c3ccc(C(C)(C)O)cc3n(C(c3ccccc3)C3CCOCC3)c2c1 (single isomer, unassigned) [Example 232, 2-(1,4-Dimethyl-1H-1,2,3-triazol-5-yl)-7-(2-hydroxypropan-2-yl)-9-(phenyl(tetrahydro-2H-pyran-4-yl)methyl)-9H-carbazole-4-carboxamide]	< 50
Cc1noc(C)c1-c1cc(C(N)=O)c2c3cc(NC(=O)N4CCOCC4)ccc3n(Cc3ccccc3)c2c1 [Example 146, 9-benzyl-2-(3,5-dimethyl-4-isoxazolyl)-6-((4-morpholinylcarbonyl)amino)-9H-carbazole-4-carboxamide]	< 50
Cc1noc(C)c1-c1cc(C(N)=O)c2c3cc(NCC#N)ccc3n(Cc3ccccc3)c2c1 [Example 138, 9-benzyl-6-((cyanomethyl)amino)-2-(3,5-dimethyl-4-isoxazolyl)-9H-carbazole-4-carboxamide]	< 50
CNc1ccc2c(c1)c1c(C(N)=O)cc(-c3c(C)noc3C)cc1n2Cc1ccccc1 [Example 130, 9-Benzyl-2-(3,5-dimethyl-4-isoxazolyl)-6-(methylamino)-9H-carbazole-4-carboxamide]	< 50
Cc1noc(C)c1-c1cc(C(N)=O)c2c3ccc(C(C)(C)O)cc3n(C(c3ccccc3)C3(F)CCC3)c2c1 (single isomer, unassigned) [Example 222, 2-(Dimethyl-1,2-oxazol-4-yl)-9-[(1-fluorocyclobutyl)(phenyl)methyl]-7-(2-hydroxypropan-2-yl)-9H-carbazole-4-carboxamide]	< 50
Cc1noc(C)c1-c1cc(C(N)=O)c2c3cc(C(=O)N4CC(F)(F)C4)ccc3n(C(C)c3ccccc3)c2c1 (racemic) [Example 96, 6-((3,3-difluoro-1-azetidinyl)carbonyl)-2-(3,5-dimethyl-4-isoxazolyl)-9-(1-phenylethyl)-9H-carbazole-4-carboxamide]	< 50
CNC(=O)c1cc(-c2c(C)noc2C)cc2c1c1cc(NC)ccc1n2Cc1ccccc1 [Example 133, 9-benzyl-2-(3,5-dimethyl-4-isoxazolyl)-N-methyl-6-(methylamino)-9H-carbazole-4-carboxamide]	< 50
Cc1noc(C)c1-c1cc(C(N)=O)c2c3cc(C(=O)N4CCOCC4(C)C)ccc3n(Cc3ccccc3)c2c1 [Example 49]	< 7500
Cc1noc(C)c1-c1cc(C(N)=O)c2c3cc(N4CCCOC4=O)ccc3n(Cc3ccc(F)cc3)c2c1 [Example 151, 2-(3,5-dimethyl-4-isoxazolyl)-9-(4-fluorobenzyl)-6-(2-oxo-1,3-oxazinan-3-yl)-9H-carbazole-4-carboxamide]	< 50
Cc1noc(C)c1-c1cc(C(N)=O)c2c3cc(C(=O)N4CC(C)OC(C)C4)ccc3n(Cc3ccc(F)cc3F)c2c1 (stereo not shown) [Example 36]	< 50
Cc1noc(C)c1-c1cc(C#N)c2c3ccc(C(C)(C)O)cc3n(Cc3ccccc3)c2c1 [Example 184, 9-benzyl-2-(3,5-dimethyl-4-isoxazolyl)-7-(1-hydroxy-1-methylethyl)-9H-carbazole-4-carbonitrile]	< 500
COc1ccc2c(c1)c1c(C(N)=O)cc(-c3c(C)noc3C)cc1n2C(C)c1ccccc1 (single isomer, unassigned) [Example 179, 2-(3,5-dimethyl-4-isoxazolyl)-6-methoxy-9-(1-phenylethyl)-9H-carbazole-4-carboxamide]	< 50
Cc1noc(C)c1-c1cc(C(=O)NCC(C)C)c2c3cc(C(=O)N4CC(F)C4)ccc3n(Cc3ccc(F)cc3)c2c1 [Example 128, 2-(3,5-dimethyl-4-isoxazolyl)-6-((3-fluoro-1-azetidinyl)carbonyl)-9-(4-fluorobenzyl)-N-isobutyl-9H-carbazole-4-carboxamide]	< 500
Cc1noc(C)c1-c1ccc2c3cc(C(=O)N4CC(C)OC(C)C4)ccc3n(CC3CC3)c2c1 (stereo not shown) [Example 5]	< 500
Cc1noc(C)c1-c1cc(C(N)=O)c2c3cc(C(=O)N4CC(F)C4)ccc3n(Cc3ccc(F)cc3)c2c1 [Example 93]	< 50
Cc1noc(C)c1-c1cc(C(N)=O)c2c3cc(C(=O)N4CCC4)ccc3n(Cc3ccccc3)c2c1 [Example 71]	< 50
